{"source": "patent US11065274B2", "about": "“Prevention and treatment for microbial infections” (University of Rochester, priority 2015, dated 2021)", "key": {"[1]": {"test_system": "P. aeruginosa", "text": "(§1) Dose response measures of the antimicrobial activity of various concentrations (0 to 8% active agent) were used to define the optimal concentration of each agent alone and in combination."}, "[2]": {"test_system": "Enterococcus faecalis V583"}, "[3]": {"test_system": "S. aureus", "text": "as §1"}, "[4]": {"test_system": "Acinetobacter baumannii 983709"}, "[5]": {"test_system": "Pseudomonas aeruginosa PA01"}, "[6]": {"test_system": "A. baumannii", "text": "as §1"}, "[7]": {"test_system": "S. aureus", "conditions": "2% agent (combination 1% silver sulfadiazine and 1% zinc pyrithione), 3 day", "experimental": "(§2) Treatments were twice a day for a total of three days, at which point the wound bacterial burden was measured."}, "[8]": {"test_system": "Enterococcus faecium 824-05"}, "[9]": {"test_system": "24 hour established A. baumannii biofilms"}, "[10]": {"test_system": "Escherichia coli 8307"}, "[11]": {"test_system": "48 hour established Pseudomonas aeruginosa biofilms"}, "[12]": {"test_system": "Staphylococcus aureus UAMS-1"}, "[13]": {"test_system": "Enterobacter cloacae Clinical Isolate"}, "[14]": {"test_system": "Klebsiella pneumoniae CKP4"}, "[15]": {"test_system": "P. aeruginosa", "conditions": "P. aeruginosa wound; 2% agent in PEG (combination 1%+1%), twice a day for three days", "experimental": "as §2"}, "[16]": {"conditions": "0 to 8% active agent (ZnPt ˜0.015 to 0.25%; combination 0.015% to 4%)"}}, "data": [{"substance": "zinc pyrithione [ZnPt]", "values": [{"measurement": "dose response of antimicrobial activity in PEG ointment", "setting": "[1]; P. aeruginosa, 0 to 8% active agent (ZnPt ˜0.015 to 0.25%; combination 0.015% to 4%)", "value": "dose-dependent increase in antimicrobial activity"}, {"measurement": "antimicrobial activity in PEG-formulation", "setting": "[1]; Pseudomonas aeruginosa", "value": "exhibited antimicrobial activity"}, {"measurement": "MIC", "setting": "[2]", "value": 2, "unit": "µg/mL"}, {"measurement": "antimicrobial activity in PEG-formulation", "setting": "[3]", "value": "exhibited antimicrobial activity"}, {"measurement": "dose response of antimicrobial activity in PEG ointment", "setting": "[3]; [16]", "value": "dose-dependent increase in antimicrobial activity"}, {"measurement": "minimum inhibitory concentration", "setting": "[4]; Acinetobacter baumannii", "value": 2, "unit": "µg/mL"}, {"measurement": "MIC", "setting": "[4]; Acinetobacter baumannii 983709", "value": 2, "unit": "µg/mL"}, {"measurement": "MIC", "setting": "[5]; Pseudomonas aeruginosa PA01", "value": 16, "unit": "µg/mL"}, {"measurement": "minimum inhibitory concentration", "setting": "[5]; planktonic P. aeruginosa", "value": 16, "unit": "µg/mL"}, {"measurement": "dose response of antimicrobial activity in PEG ointment", "setting": "[6]; [16]", "value": "dose-dependent increase in antimicrobial activity"}, {"measurement": "antimicrobial activity in PEG-formulation", "setting": "[6]; 1% agent or 1% combination (0.5% each)", "value": "exhibited antimicrobial activity"}, {"measurement": "animals completed cleared of S. aureus", "setting": "[7]", "value": "6 of 10"}, {"measurement": "minimum inhibitory concentration", "setting": "[8]; Enterococcus faecium", "value": 2, "unit": "µg/mL"}, {"measurement": "MIC", "setting": "[8]; Enterococcus faecium 824-05", "value": 2, "unit": "µg/mL"}, {"measurement": "antibiofilm activity toward A. baumannii biofilms", "setting": "[9]; comparison of agents alone and in combination", "value": "improved activity"}, {"measurement": "reduction in biofilm associated A. baumannii", "setting": "[9]; highest concentration tested (128 μg ml^−1; combination 64 μg ml^−1 of each agent)", "value": 3.5, "unit": "log"}, {"measurement": "minimum inhibitory concentration", "setting": "[10]; Escherichia coli", "value": 1, "unit": "µg/mL"}, {"measurement": "MIC", "setting": "[10]; Escherichia coli 8307", "value": 1, "unit": "µg/mL"}, {"measurement": "reduction in biofilm associated Pseudomonas aeruginosa", "setting": "[11]; 50 μM (15.8 μg ml^−1), 48 hour biofilm", "value": 1, "unit": "log"}, {"measurement": "antibiofilm activity toward P. aeruginosa", "setting": "[11]; low concentrations (4 to 64 μg ml^−1)", "value": "comparable to that of silver sulfadiazine"}, {"measurement": "minimum inhibitory concentration", "setting": "[12]; Staphylococcus aureus", "value": 2, "unit": "µg/mL"}, {"measurement": "MIC", "setting": "[12]; Staphylococcus aureus UAMS-1", "value": 2, "unit": "µg/mL"}, {"measurement": "minimum inhibitory concentration", "setting": "[13]; Enterbacter cloacae", "value": 4, "unit": "µg/mL"}, {"measurement": "MIC", "setting": "[13]; Enterobacter cloacae Clinical Isolate", "value": 4, "unit": "µg/mL"}, {"measurement": "minimum inhibitory concentration", "setting": "[14]; Klebsiella pneumoniae", "value": 2, "unit": "µg/mL"}, {"measurement": "MIC", "setting": "[14]; Klebsiella pneumoniae CKP4", "value": 2, "unit": "µg/mL"}, {"measurement": "decrease in bacterial burden", "setting": "[15]", "value": 1.2, "unit": "log"}]}]}
